Laboratory results from ChEMBL document CHEMBL5113527, “First-in-Class Hydrazide-Based HDAC6 Selective Inhibitor with Potent Oral Anti-Inflammatory Activity by Attenuating NLRP3 Inflammasome Activation” (J Med Chem, 2022).
The source made the active and inactive calls. The calls are words filed in the database; no cut-off is given here.

Key:
Histone deacetylase 2 [1] = target: T1, Histone deacetylase 2 (Homo sapiens, UniProt Q92769); assay: Inhibition of recombinant HDAC2 (unknown origin) using Boc-Lys(acetyl)-AMC as substrate preincubated for 1 hr followed by substrate addition and measured after 2 hrs by fluorescence based microplate reader analysis
T1 sequence (Q92769 whole entry): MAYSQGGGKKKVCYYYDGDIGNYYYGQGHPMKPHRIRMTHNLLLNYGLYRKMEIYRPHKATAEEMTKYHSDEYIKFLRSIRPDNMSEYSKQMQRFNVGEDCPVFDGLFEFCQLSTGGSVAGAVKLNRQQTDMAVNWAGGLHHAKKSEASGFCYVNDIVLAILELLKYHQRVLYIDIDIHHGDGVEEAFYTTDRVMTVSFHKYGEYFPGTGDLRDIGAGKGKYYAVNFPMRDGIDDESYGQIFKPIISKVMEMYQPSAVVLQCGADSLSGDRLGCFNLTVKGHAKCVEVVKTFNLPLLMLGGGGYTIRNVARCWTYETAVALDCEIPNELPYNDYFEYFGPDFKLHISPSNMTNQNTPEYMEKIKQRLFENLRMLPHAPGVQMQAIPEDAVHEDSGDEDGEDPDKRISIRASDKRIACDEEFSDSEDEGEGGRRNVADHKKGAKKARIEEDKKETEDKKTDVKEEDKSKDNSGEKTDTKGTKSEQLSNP

Histone deacetylase 3 [2] = target: T2, Histone deacetylase 3 (Homo sapiens, UniProt O15379); assay: Inhibition of recombinant HDAC3 (unknown origin) using Boc-Lys(acetyl)-AMC as substrate preincubated for 1 hr followed by substrate addition and measured after 2 hrs by fluorescence based microplate reader analysis
T2 sequence (O15379 whole entry): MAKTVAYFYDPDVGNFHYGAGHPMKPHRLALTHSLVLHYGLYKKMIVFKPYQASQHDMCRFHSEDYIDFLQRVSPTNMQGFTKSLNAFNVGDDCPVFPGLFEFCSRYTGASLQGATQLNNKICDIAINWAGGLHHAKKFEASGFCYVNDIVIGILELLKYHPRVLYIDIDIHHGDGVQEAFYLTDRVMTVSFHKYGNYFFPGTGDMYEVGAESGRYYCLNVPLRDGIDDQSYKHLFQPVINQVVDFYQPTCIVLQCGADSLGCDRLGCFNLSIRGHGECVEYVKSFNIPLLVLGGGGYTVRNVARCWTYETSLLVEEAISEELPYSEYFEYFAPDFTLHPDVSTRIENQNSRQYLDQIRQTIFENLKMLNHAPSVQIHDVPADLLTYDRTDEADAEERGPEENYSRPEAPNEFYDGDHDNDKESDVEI

Histone deacetylase 1 [3] = target: T3, Histone deacetylase 1 (Homo sapiens, UniProt Q13547); assay: Inhibition of recombinant HDAC1 (unknown origin) using Boc-Lys(acetyl)-AMC as substrate preincubated for 1 hr followed by substrate addition and measured after 2 hrs by fluorescence based microplate reader analysis
T3 sequence (Q13547 whole entry): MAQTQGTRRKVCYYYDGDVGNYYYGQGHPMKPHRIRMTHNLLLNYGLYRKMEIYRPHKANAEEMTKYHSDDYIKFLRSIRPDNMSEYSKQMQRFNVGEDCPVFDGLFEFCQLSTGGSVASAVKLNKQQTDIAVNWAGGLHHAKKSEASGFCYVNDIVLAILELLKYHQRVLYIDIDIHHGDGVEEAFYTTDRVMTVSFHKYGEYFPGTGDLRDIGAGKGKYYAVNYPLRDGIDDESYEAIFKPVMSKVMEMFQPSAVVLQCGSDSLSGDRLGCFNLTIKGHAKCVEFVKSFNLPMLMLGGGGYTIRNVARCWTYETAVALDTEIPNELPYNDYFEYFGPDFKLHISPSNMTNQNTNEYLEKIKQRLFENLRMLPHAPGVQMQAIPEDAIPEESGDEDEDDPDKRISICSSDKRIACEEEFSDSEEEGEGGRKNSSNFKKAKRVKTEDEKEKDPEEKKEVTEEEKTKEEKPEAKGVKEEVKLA

[4] = target: T4, Protein deacetylase HDAC6 (Homo sapiens, UniProt Q9UBN7); assay: Inhibition of recombinant HDAC6 (unknown origin) using Boc-Lys(acetyl)-AMC as substrate preincubated for 1 hr followed by substrate addition and measured after 2 hrs by fluorescence based microplate reader analysis
T4 sequence (Q9UBN7 whole entry): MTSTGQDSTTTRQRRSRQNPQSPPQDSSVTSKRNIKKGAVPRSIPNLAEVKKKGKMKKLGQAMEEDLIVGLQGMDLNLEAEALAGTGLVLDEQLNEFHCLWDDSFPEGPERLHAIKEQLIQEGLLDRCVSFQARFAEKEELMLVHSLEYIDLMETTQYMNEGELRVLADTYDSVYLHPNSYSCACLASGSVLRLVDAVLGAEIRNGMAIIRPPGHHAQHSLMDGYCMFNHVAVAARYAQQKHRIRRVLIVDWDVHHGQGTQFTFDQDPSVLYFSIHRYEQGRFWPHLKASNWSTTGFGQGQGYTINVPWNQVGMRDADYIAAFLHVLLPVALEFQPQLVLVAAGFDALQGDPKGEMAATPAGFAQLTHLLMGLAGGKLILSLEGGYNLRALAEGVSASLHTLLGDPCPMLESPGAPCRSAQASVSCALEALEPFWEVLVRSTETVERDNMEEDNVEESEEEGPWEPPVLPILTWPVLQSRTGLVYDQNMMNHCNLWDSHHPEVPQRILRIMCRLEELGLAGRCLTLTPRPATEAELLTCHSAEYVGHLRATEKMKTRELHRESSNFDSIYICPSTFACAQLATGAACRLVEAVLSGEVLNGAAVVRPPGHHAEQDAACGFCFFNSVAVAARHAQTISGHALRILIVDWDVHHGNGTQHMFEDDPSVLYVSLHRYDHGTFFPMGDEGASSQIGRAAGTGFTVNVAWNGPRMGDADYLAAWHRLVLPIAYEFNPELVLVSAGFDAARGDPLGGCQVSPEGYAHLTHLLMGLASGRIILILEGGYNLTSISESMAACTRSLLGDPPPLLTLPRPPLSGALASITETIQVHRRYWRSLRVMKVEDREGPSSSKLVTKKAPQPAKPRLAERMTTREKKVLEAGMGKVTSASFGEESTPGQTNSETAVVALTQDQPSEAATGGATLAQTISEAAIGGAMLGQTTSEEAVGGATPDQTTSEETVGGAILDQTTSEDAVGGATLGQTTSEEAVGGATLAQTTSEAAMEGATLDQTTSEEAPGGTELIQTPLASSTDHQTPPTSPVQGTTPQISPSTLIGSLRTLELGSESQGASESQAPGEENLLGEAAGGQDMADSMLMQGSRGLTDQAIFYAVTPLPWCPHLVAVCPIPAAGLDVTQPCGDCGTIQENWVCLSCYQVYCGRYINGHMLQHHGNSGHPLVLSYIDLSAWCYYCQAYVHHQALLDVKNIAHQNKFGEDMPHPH

Homo sapiens = organism: Homo sapiens; assay: Selectivity index, ratio of IC50 for recombinant HDAC1(unknown origin) to IC50 for full length recombinant human HDAC6
Histone deacetylase 1 [5] = target: T3, Histone deacetylase 1; assay: Inhibition of HDAC1 (unknown origin)
Histone deacetylase 3 [6] = target: T2, Histone deacetylase 3; assay: Inhibition of HDAC3 (unknown origin)
Histone deacetylase 2 [7] = target: T1, Histone deacetylase 2; assay: Inhibition of HDAC2 (unknown origin)
J774.A1 [8] = assay: Inhibition of NLRP3 inflammasome activation in mouse J774.A1 cells assessed as cleavage of pro-caspase 1 to p20 measured at 5 to 20 microM after […] by Western blot analysis; assay type: functional, cell-based; settings: dose 5-20 µM
J774.A1 [9] = assay: Inhibition of NLRP3 inflammasome activation in mouse J774.A1 cells assessed as cleavage of pro-caspase 1 to p20 measured at 20 microM after […] by Western blot analysis; assay type: functional, cell-based; settings: DDE = dose-dependent effect
[10] = AUC(0 to infinity) in CD-1 mouse at 3 mg/kg, iv measured after 0.083 to 24 hrs by LC-MS/MS analysis; assay type: ADME, organism-based; design: dose 3 mg/kg, time upper 24 hrs, time lower 0.083 hrs, route iv; settings: in vivo
[11] = Cmax in CD-1 mouse at 3 mg/kg, iv measured after 0.083 to 24 hrs by LC-MS/MS analysis; assay type: ADME, organism-based; design: time upper 24 hrs, time lower 0.083 hrs, dose 3 mg/kg, route iv; settings: in vivo
J774.A1 [12] = assay: Inhibition of HDAC6/dynein interaction in mouse J774.A1 cells measured after 8 hrs by co-immunoprecipitation based Western blotting analysis; assay type: cell-based
[13] = Cmax in CD-1 mouse at 30 mg/kg, po measured after 0.083 to 24 hrs by LC-MS/MS analysis; assay type: ADME, organism-based; design: time upper 24 hrs, time lower 0.083 hrs, dose 30 mg/kg, route po; settings: in vivo
[14] = Inhibition of HDAC11(unknown origin) preincubated for 1 hr followed by substrate addition and measured after 2 hrs by fluorescence based microplate reader analysis; design: species or system Homo sapiens
[15] = AUC(0 to infinity) in CD-1 mouse at 30 mg/kg, po measured after 0.083 to 24 hrs by LC-MS/MS analysis; assay type: ADME, organism-based; design: dose 30 mg/kg, time upper 24 hrs, time lower 0.083 hrs, route po; settings: in vivo

| Compound | IC50 (Histone deacetylase 2 [1]) | IC50 (Histone deacetylase 3 [2]) | IC50 (Histone deacetylase 1 [3]) | IC50 [4] | Ratio IC50 (Homo sapiens) | further results |
| --- | --- | --- | --- | --- | --- | --- |
| CCNNC(=O)c1ccc(Cn2ccc3cc(C(=O)c4ccc(OC)cc4)ccc32)cc1 | 0.913 µM | 0.217 µM | 0.543 µM | 0.449 µM | 1.2 | – |
| O=C(CS)NCCCCNc1c(Cl)cc(Cl)c2cccnc12 | – | – | 6.68 µM | – | – | IC50 (Histone deacetylase 1 [5]): 6.68 µM |
| CCNNC(=O)c1ccc(CN2c3ccccc3Sc3ccccc32)cc1 | > 5 µM | 3.96 µM | > 5 µM | 0.175 µM | > 28 | – |
| CCNNC(=O)c1ccc(CNC(=O)c2ccccc2)cc1 | – | – | 0.399 µM | 0.078 µM | 5.1 | – |
| CNNC(=O)c1ccc(CNC(=O)c2ccccc2)cc1 | – | – | 4.62 µM | 0.878 µM | 5.2 | – |
| CCNNC(=O)c1ccc(CN2c3ccccc3C=Cc3ccc(C)cc32)cc1 | 4.39 µM | 0.469 µM | 2.27 µM | 0.076 µM | 30 | – |
| CCNNC(=O)c1ccc(Cn2c3ccccc3c3ccccc32)cc1 | > 5 µM | 2.33 µM | > 5 µM | 0.361 µM | > 14 | – |
| O=C(NO)c1ccc(CC(=O)N(CCO)c2ccccc2)cc1 | – | – | – | – | – | IC50 (Histone deacetylase 1 [5]): 0.842 µM; IC50 (Histone deacetylase 3 [6]): 2.08 µM; IC50 (Histone deacetylase 2 [7]): 2.21 µM |
| CNS(=O)(=O)c1ccc(CCNC(=O)c2cc(Cl)ccc2OC)cc1 | – | – | – | – | – | Activity (J774.A1 [8]): Active; inhibition (J774.A1 [9]): Dde |
| CCNNC(=O)c1ccc(Cn2c(=O)n(CCc3ccccc3)c(=O)c3ccccc32)cc1 | 1.2 µM | 0.077 µM | 1.69 µM | 0.145 µM | 11 | – |
| CCNNC(=O)c1ccc(Cn2nnnc2-c2cccs2)cc1 | 0.041 µM | 0.026 µM | 0.08 µM | 0.016 µM | 5 | – |
| CCNNC(=O)c1ccc(CN2c3ccccc3C=Cc3ccc(C(F)(F)F)cc32)cc1 | > 5 µM | 1.85 µM | > 5 µM | 0.173 µM | > 29 | – |
| CCNNC(=O)c1ccc(Cn2c3ccccc3c3ccncc32)cc1 | 4.38 µM | > 5 µM | > 5 µM | 0.073 µM | > 68 | – |
| CCNNC(=O)c1ccc(Cn2c3ccccc3c3cnccc32)cc1 | 3.23 µM | 4.61 µM | > 5 µM | 0.11 µM | > 45 | – |
| CCNNC(=O)c1ccc(Cn2c3c(c4ccccc42)CCCC3)cc1 | > 5 µM | > 5 µM | > 5 µM | 0.455 µM | > 11 | – |
| CCNNC(=O)c1coc(-c2ccc(Br)cc2)c1 | > 5 µM | > 5 µM | > 5 µM | > 5 µM | – | – |
| CCNNC(=O)c1ccc(CN2c3ccccc3CCc3ccccc32)cc1 | > 5 µM | 3.95 µM | > 5 µM | 0.25 µM | > 20 | – |
| CN1CCc2c(c3ccccc3n2Cc2ccc(C(=O)NO)cc2)C1 [TUBASTATIN A] | – | – | – | – | – | AUC [10]: 227 ng·h/mL; Cmax [11]: 1240 ng/mL; inhibition (J774.A1 [12]): Active; Cmax [13]: 135 ng/mL; IC50 [14]: > 5 µM; AUC [15]: 134 ng·h/mL |
